# Reference: ChEMBL document CHEMBL4414605 (J Med Chem, 2019)
# What was measured:
# [1] = molecular target: T1, D(2) dopamine receptor (Homo sapiens, UniProt P14416)
# Description: Displacement of PPHT-red from SNAP-tagged human D2LR expressed in CHOK1 cell membranes assessed as dissociation rate constant by TR-FRET assay
# [2] = molecular target: T1, D(2) dopamine receptor; remark: listed apart in the source
# Description: Displacement of PPHT-red from SNAP-tagged human D2LR expressed in CHOK1 cell membranes assessed as association rate constant by TR-FRET assay
# [3] = molecular target: T1, D(2) dopamine receptor; remark: listed apart in the source
# Description: Displacement of PPHT-red from SNAP-tagged human D2LR expressed in CHOK1 cell membranes assessed as dissociation half-life by TR-FRET assay
# [4] = molecular target: T1, D(2) dopamine receptor; conditions: 10 min, read-out: INH
# [5] = molecular target: T1, D(2) dopamine receptor; remark: listed apart in the source
# Description: Binding affinity to SNAP-tagged human D2LR expressed in CHOK1 cell membranes assessed as association rate constant by TR-FRET assay
# [6] = molecular target: T1, D(2) dopamine receptor; remark: listed apart in the source
# Description: Binding affinity to SNAP-tagged human D2LR expressed in CHOK1 cell membranes assessed as dissociation rate constant by TR-FRET assay
# T1 sequence (P14416 whole entry): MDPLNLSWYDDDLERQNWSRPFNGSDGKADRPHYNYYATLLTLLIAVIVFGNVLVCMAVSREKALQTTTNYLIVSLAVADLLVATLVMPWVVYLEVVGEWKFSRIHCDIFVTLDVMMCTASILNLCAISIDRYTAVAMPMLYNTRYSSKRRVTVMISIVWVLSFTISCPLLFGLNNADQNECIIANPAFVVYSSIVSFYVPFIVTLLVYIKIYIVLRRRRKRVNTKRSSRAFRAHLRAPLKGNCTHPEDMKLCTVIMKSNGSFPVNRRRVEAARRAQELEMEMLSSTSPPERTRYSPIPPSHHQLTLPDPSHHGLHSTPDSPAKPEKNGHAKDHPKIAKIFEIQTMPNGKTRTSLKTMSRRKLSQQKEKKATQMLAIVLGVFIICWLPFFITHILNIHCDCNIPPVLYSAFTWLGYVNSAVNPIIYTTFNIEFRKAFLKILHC
smiles,measurement,setting,value
O=C(CCCN1CCC(O)(c2ccc(Cl)cc2)CC1)c1cccc(F)c1,Kdiss,[1],0.016 to 0.018 s⁻¹
same,Ka,[2],2.55 to 2.64 ×10⁷ /M/min
same,T1/2,[3],42 to 45.6 s
O=C(CCN1CCC(O)(c2ccc(Cl)cc2)CC1)c1ccc(F)cc1,Kdiss,[1],0.0212 to 0.0325 s⁻¹
same,Ka,[2],1.03 to 1.33 ×10⁷ /M/min
same,T1/2,[3],25.8 to 34.2 s
O=C(CCCN1CCC(O)(c2ccc(F)cc2)CC1)c1ccc(F)cc1,Kdiss,[1],0.013 s⁻¹
same,Ka,[2],2.61 ×10⁸ /M/min
same,T1/2,[3],55.2 s
O=C(CCCN1CCC(O)(c2ccc(Cl)cc2)CC1)c1cc(F)cc(F)c1,Kdiss,[1],0.0153 s⁻¹
same,Ka,[2],4.25 ×10⁶ /M/min
same,T1/2,[3],47.4 s
O=C(CCCCN1CCC(O)(c2ccc(Cl)cc2)CC1)c1ccc(F)cc1,Kdiss,[1],0.0275 to 0.0392 s⁻¹
same,Ka,[2],1.42 to 1.8 ×10⁸ /M/min
same,T1/2,[3],18 to 28.8 s
O=C(CCCN1CCC(O)(c2ccc(C(F)(F)F)cc2)CC1)c1ccc(F)cc1,Kdiss,[1],0.0103 s⁻¹
same,Ka,[2],1.36 ×10⁹ /M/min
same,T1/2,[3],67.2 s
OC1(c2ccc(Cl)cc2)CCN(CCC#Cc2ccc(F)cc2)CC1,Kdiss,[1],0.0183 s⁻¹
same,Ka,[2],1.61 ×10⁷ /M/min
same,T1/2,[3],41.4 s
O=C(CCCN1CCC(O)(c2ccc(Cl)cc2)CC1)c1ccccc1Cl,Kdiss,[1],0.0185 s⁻¹
same,Ka,[2],3.16 ×10⁸ /M/min
same,T1/2,[3],45.6 s
O=C(CCCN1CCC(O)(c2cccc(Cl)c2Cl)CC1)c1ccc(F)cc1,Kdiss,[1],0.005 s⁻¹
same,Ka,[2],2.2 ×10⁹ /M/min
same,T1/2,[3],137 s
OC1(c2ccc(Cl)cc2)CCN(CC[C@H]2C[C@@H]2c2ccc(F)cc2)CC1 (racemic),Kdiss,[1],0.0153 s⁻¹
same,Ka,[2],6.07 ×10⁸ /M/min
same,T1/2,[3],49.2 s
OC1(c2ccc(Cl)cc2)CCN(CCCCc2ccc(F)cc2)CC1,Kdiss,[1],0.0185 s⁻¹
same,Ka,[2],1.57 ×10⁸ /M/min
same,T1/2,[3],37.8 s
O=C(CCCN1CCC(O)(c2ccccc2)CC1)c1ccccc1,Kdiss,[1],0.0118 s⁻¹
same,Ka,[2],2.28 ×10⁷ /M/min
same,T1/2,[3],58.8 s
OC1(c2ccc(Cl)cc2)CCN(CCCc2ccc(F)cc2)CC1,Kdiss,[1],0.0222 to 0.0257 s⁻¹
same,Ka,[2],2.29 to 2.45 ×10⁷ /M/min
same,T1/2,[3],27.6 to 34.2 s
OC1(c2ccc(Cl)cc2)CCN(CCCC#Cc2ccc(F)cc2)CC1,Kdiss,[1],0.0192 s⁻¹
same,Ka,[2],6.41 ×10⁷ /M/min
same,T1/2,[3],39 s
O=C(CCCN1CCC(O)(c2ccccc2)CC1)c1ccc(F)cc1,Kdiss,[1],0.017 s⁻¹
same,Ka,[2],1.22 ×10⁸ /M/min
same,T1/2,[3],42.6 s
Cc1ccc(C2(O)CCN(CCCC(=O)c3ccc(F)cc3)CC2)cc1,Kdiss,[1],0.0163 s⁻¹
same,Ka,[2],1 ×10⁹ /M/min
same,T1/2,[3],43.8 s
CN(C)c1ccc(C2(O)CCN(CCCC(=O)c3ccc(F)cc3)CC2)cc1,Kdiss,[1],0.0208 s⁻¹
same,Ka,[2],1.64 ×10⁸ /M/min
same,T1/2,[3],33.6 s
COC1(c2ccc(Cl)cc2)CCN(CCCC(=O)c2ccc(F)cc2)CC1,Kdiss,[1],0.0113 s⁻¹
same,Ka,[2],3.6 ×10⁸ /M/min
same,T1/2,[3],61.8 s
O=C(CCCN1CCC(O)(c2ccc(Cl)cc2)CC1)c1ccccc1F,Kdiss,[1],0.0173 s⁻¹
same,T1/2,[3],41.4 s
O=C(CCCN1CCC(O)(c2ccc(Cl)cc2)CC1)c1cc(F)ccc1F,Kdiss,[1],0.019 to 0.0248 s⁻¹
same,Ka,[2],1.13 to 1.15 ×10⁷ /M/min
same,T1/2,[3],34.8 to 37.8 s
O=C(CCCN1CCN(c2ccc(Cl)cc2)CC1)c1ccc(F)cc1,Kdiss,[1],0.0133 s⁻¹
same,Ka,[2],2.86 ×10⁷ /M/min
same,T1/2,[3],53.4 s
O=C(CCCN1CCC(O)(c2ccccc2-c2ccccc2Cl)CC1)c1ccc(F)cc1,Kdiss,[1],0.0137 s⁻¹
same,Ka,[2],3.25 ×10⁸ /M/min
same,T1/2,[3],53.4 s
O=C(CCCN1CCC(O)(c2cc(Cl)ccc2Cl)CC1)c1ccc(F)cc1,Kdiss,[1],0.00933 s⁻¹
same,Ka,[2],5.29 ×10⁸ /M/min
same,T1/2,[3],76.2 s
O=C(CCCN1CCC(O)(c2ccc(Cl)cc2)CC1)c1ccccc1,Kdiss,[1],0.0187 s⁻¹
same,Ka,[2],6.33 ×10⁸ /M/min
same,T1/2,[3],40.2 s
O=C(CCCN1[C@@H]2CC[C@H]1CC(O)(c1ccc(Cl)cc1)C2)c1ccc(F)cc1 (stereo partly specified),Kdiss,[1],0.00317 s⁻¹
same,Ka,[2],3.68 ×10⁹ /M/min
same,T1/2,[3],215 s
OC1(c2ccc(Cl)cc2)CCN(CCCSc2ccc(F)cc2)CC1,Kdiss,[1],0.0165 s⁻¹
same,Ka,[2],4.99 ×10⁸ /M/min
same,T1/2,[3],44.4 s
O=C(CCCN1CCC(O)(c2ccc(Cl)cc2)CC1)c1ccc(F)c(F)c1,Kdiss,[1],0.0172 s⁻¹
same,T1/2,[3],45 s
OC(CCCN1CCC(O)(c2ccc(Cl)cc2)CC1)c1ccc(F)cc1 (stereo unspecified),Kdiss,[1],0.0095 s⁻¹
same,Ka,[2],6.19 ×10⁶ /M/min
same,T1/2,[3],75 s
OC1(c2ccc(Cl)cc2)CCN(CCCOc2ccc(F)cc2)CC1,Kdiss,[1],0.0152 s⁻¹
same,Ka,[2],1.22 ×10⁹ /M/min
same,T1/2,[3],48.6 s
O=C(CCCN1CCC(O)(c2ccc(Cl)cc2)CC1)c1ccc(F)cc1F,Kdiss,[1],0.0227 s⁻¹
same,Ka,[2],1.07 ×10⁷ /M/min
same,T1/2,[3],30.6 s
OC1(c2ccc(Cl)cc2)CCN(CC[C@H]2C[C@H]2c2ccc(F)cc2)CC1 (racemic),Kdiss,[1],0.0228 s⁻¹
same,Ka,[2],4.47 ×10⁷ /M/min
same,T1/2,[3],30.6 s
O=C(CCCN1CCC(O)(c2ccc(Cl)c(Cl)c2)CC1)c1ccc(F)cc1,Kdiss,[1],0.007 s⁻¹
same,Ka,[2],2.95 ×10⁹ /M/min
same,T1/2,[3],100 s
O=C(CCCN1CCC(c2ccccc2)CC1)c1ccc(F)cc1,Kdiss,[1],0.0118 s⁻¹
same,Ka,[2],8.99 ×10⁷ /M/min
same,inhibition at 10 µM,[4],20%
same,T1/2,[3],59.4 s
O=C(CCCN1CCC(O)(c2ccc(Cl)cc2)CC1)c1cccc(F)c1F,Kdiss,[1],0.0215 to 0.0283 s⁻¹
same,Ka,[2],3.01 to 3.24 ×10⁷ /M/min
same,T1/2,[3],24.6 to 36 s
O=C(CCCN1CCC(O)(c2ccc(Cl)cc2)CC1)c1c(F)cccc1F,Kdiss,[1],0.0182 s⁻¹
same,Ka,[2],1.84 ×10⁷ /M/min
same,T1/2,[3],39.6 s
O=C(CCCN1CCC(O)(c2cccc(Cl)c2)CC1)c1ccc(F)cc1,Kdiss,[1],0.0107 s⁻¹
same,Ka,[2],6.32 ×10⁸ /M/min
same,T1/2,[3],71.4 s
CCCN(CCc1ccccc1)C1CCc2c(O)cccc2C1 (racemic),Ka,[5],9.21 ×10⁶ /M/min
same,Kdiss,[6],0.00583 s⁻¹
O=C(CCCN1CCC(c2ccc(Cl)cc2)CC1)c1ccc(F)cc1,Kdiss,[1],0.014 s⁻¹
same,Ka,[2],4.31 ×10⁸ /M/min
same,T1/2,[3],51.6 s
O=C(CCCN1CCC2(c3ccc(Cl)cc3)CC2C1)c1ccc(F)cc1 (stereo unspecified),Kdiss,[1],0.005 s⁻¹
same,Ka,[2],2.03 ×10⁹ /M/min
same,T1/2,[3],141 s
O=C(CCCN1CCC(O)(c2ccc(Cl)cc2)CC1)c1ccc(Cl)cc1,Kdiss,[1],0.0117 s⁻¹
same,Ka,[2],1.38 ×10⁸ /M/min
same,T1/2,[3],60 s
O=C(CCCN1CCC(O)(c2ccc(Cl)cc2Cl)CC1)c1ccc(F)cc1,Kdiss,[1],0.0117 s⁻¹
same,Ka,[2],2.87 ×10⁸ /M/min
same,T1/2,[3],69 s
O=C(CCCN1CC=C(c2ccc(Cl)cc2)CC1)c1ccc(F)cc1,Kdiss,[1],0.0108 s⁻¹
same,Ka,[2],6.52 ×10⁷ /M/min
same,T1/2,[3],65.4 s
OC1(c2ccc(Cl)cc2)CCN(CC/C=C/c2ccc(F)cc2)CC1,Kdiss,[1],0.0127 s⁻¹
same,Ka,[2],6.39 ×10⁷ /M/min
same,T1/2,[3],44.4 s
O=C(CCCN1CCC(O)(c2cc(Cl)cc(Cl)c2)CC1)c1ccc(F)cc1,Kdiss,[1],0.00717 s⁻¹
same,Ka,[2],6.58 ×10⁸ /M/min
same,T1/2,[3],116 s
O=C(CCCN1CCC(O)(c2c(Cl)cccc2Cl)CC1)c1ccc(F)cc1,Kdiss,[1],0.0175 s⁻¹
same,Ka,[2],5.07 ×10⁸ /M/min
same,T1/2,[3],40.2 s
OC1(c2ccc(Cl)cc2)CCN(CC#Cc2ccc(F)cc2)CC1,Kdiss,[1],0.016 s⁻¹
same,Ka,[2],3.37 ×10⁶ /M/min
same,T1/2,[3],46.2 s
OC1(c2ccc(Cl)cc2)CCN(CCCCCc2ccc(F)cc2)CC1,Kdiss,[1],0.0203 s⁻¹
same,Ka,[2],5.51 ×10⁷ /M/min
same,T1/2,[3],36 s
Cc1ccccc1C(=O)CCCN1CCC(O)(c2ccc(Cl)cc2)CC1,Kdiss,[1],0.0138 s⁻¹
same,Ka,[2],3.66 ×10⁸ /M/min
same,T1/2,[3],60.6 s
OC1(c2ccc(Cl)cc2)CCN(CC/C=C\c2ccc(F)cc2)CC1,Kdiss,[1],0.0208 s⁻¹
same,Ka,[2],3.35 ×10⁷ /M/min
same,T1/2,[3],34.8 s
O=C(CCCN1CCC(O)(c2ccccc2Cl)CC1)c1ccc(F)cc1,Kdiss,[1],0.0193 s⁻¹
same,Ka,[2],3.54 ×10⁸ /M/min
same,T1/2,[3],36.6 s
O=C(CCCN1CCC(O)(c2ccc(F)cc2)CC1)c1ccc(Cl)cc1,Kdiss,[1],0.0128 s⁻¹
same,Ka,[2],4.17 ×10⁷ /M/min
same,T1/2,[3],54.6 s
